In ChEMBL document CHEMBL5316264, “Identification of N- and C-3-Modified Laudanosoline Derivatives as Novel Influenza PAN Endonuclease Inhibitors” (J Med Chem, 2023):
Activity calls are given as the source filed them. The rule behind the calls is not given here.

Tests used:
[1] = in vitro; conditions: dog, MDCK cells
[2] = Cytotoxicity against MDCK cells incubated for 48 hrs by MTT assay; type: toxicity, cell-based, Canis lupus familiaris; conditions: dog
[3] = test system: Influenza A virus; test: Antiviral activity against influenza A virus H5N1(A/Duck/Guangdong/212/2004) infected in MDCK cells assessed as inhibition of cytopathic effect incubated for 48 hrs by MTT assay; type: functional, organism-based
[4] = test system: Influenza A virus; test: Antiviral activity against influenza A virus Flu (B/Lee/1940) infected in MDCK cells assessed as inhibition of cytopathic effect incubated for 48 hrs by MTT assay; type: functional, organism-based
[5] = test system: Influenza A virus; test: Antiviral activity against influenza A virus H3N2(JX/312) infected in MDCK cells assessed as inhibition of cytopathic effect incubated for 48 hrs by MTT assay; type: functional, organism-based
[6] = test system: Influenza A virus; test: Antiviral activity against Influenza A A/WSN/33 (H1N1) infected in BALB/c mouse at 10 mg/kg/day, ip administered twice daily for 5 days starting from 1 hrs post infection and measured daily for 14 days; type: functional, organism-based; conditions: time 5.0 day
[7] = molecular target: Polymerase acidic protein (Influenza A virus (A/Puerto Rico/8/1934(H1N1))) (UniProt P03433); test: Inhibition of Influenza A virus N-terminal domain of PA endonuclease using 6FAM-TGGCAATATCAGCTCCACA-MGBNFQ as fluorescent substrate by FRET analysis
[8] = Metabolic stability in mouse liver microsomes assessed as intrinsic clearance at 10 uM incubated for 5 mins in presence of NADPH by LC-MS/MS analysis; type: ADME, Microsome; conditions: read-out: CLH
[9] = Metabolic stability in mouse liver microsomes assessed as half life at 10 uM incubated for 5 mins in presence of NADPH by LC-MS/MS analysis; type: ADME, Microsome
[10] = test system: Influenza A virus; test: Antiviral activity against influenza A virus A/WSN/33 (H1N1) infected in MDCK cells at 20 uM pre-infected with virus for 1 hr followed by compound addition and measured after 24 hrs post infection; type: functional, organism-based
[11] = Metabolic stability in mouse plasma assessed as compound remaining measured after 90 mins by LC-MS/MS analysis; type: ADME, cell-free; conditions: read-out: Stability
[12] = Metabolic stability in mouse plasma assessed as compound remaining measured after 120 mins by LC-MS/MS analysis; type: ADME, cell-free; conditions: read-out: Stability
[13] = Metabolic stability in mouse plasma assessed as compound remaining measured after 30 mins by LC-MS/MS analysis; type: ADME, cell-free; conditions: read-out: Stability
[14] = Metabolic stability in mouse plasma assessed as compound remaining measured after 60 mins by LC-MS/MS analysis; type: ADME, cell-free; conditions: read-out: Stability

SMILES	selectivity ratio [1]	CC50 at 48 h [2]	also measured
C=CC(=O)N1[C@H](C(=O)OC)Cc2cc(O)c(O)cc2[C@@H]1Cc1ccc(O)c(O)c1	8.9	47.5 µM	
O=C(Nc1ccncc1)[C@@H]1Cc2cc(O)c(O)cc2[C@H](Cc2ccc(O)c(O)c2)N1C(=O)c1ccccc1Cl	101	203 µM	EC50 [3]: 2.85 µM; EC50 [4]: 0.82 µM; EC50 [5]: 0.95 µM
O=C(O)[C@@H]1Cc2cc(O)c(O)cc2[C@H](Cc2ccc(O)c(O)c2)N1C(=O)c1ccccc1Cl	5.4	103 µM	
COC(=O)[C@@H]1Cc2cc(O)c(O)cc2[C@H](Cc2ccc(O)c(O)c2)N1C(=O)C1CCCCC1	3.4	64.5 µM	
O=C(Oc1ccccc1)[C@@H]1Cc2cc(O)c(O)cc2[C@H](Cc2ccc(O)c(O)c2)N1C(=O)c1ccccc1Cl	52.1	70.3 µM	
COC(=O)[C@@H]1Cc2cc(O)c(O)cc2[C@H](Cc2ccc(O)c(O)c2)N1C(=O)c1c(Cl)cccc1Cl	15.5	81.6 µM	
CCC(CC)[C@H](NC(C)=O)[C@@H]1[C@H](O)[C@@H](C(=O)O)C[C@H]1NC(=N)N [PERAMIVIR ANHYDROUS]	> 19.2	> 101 µM	EC50 [3]: 1.06 µM; EC50 [4]: 1.66 µM; Activity [6]: Active; EC50 [5]: 215 µM
CN1CCc2cc(O)c(O)cc2C1Cc1ccc(O)c(O)c1 (racemic)	> 5.4	> 200 µM	
COC(=O)[C@@H]1Cc2cc(O)c(O)cc2[C@H](Cc2ccc(O)c(O)c2)N1C(=O)c1ccccc1Br	> 29.5	> 101 µM	
COC(=O)[C@@H]1Cc2cc(O)c(O)cc2[C@H](Cc2ccc(O)c(O)c2)N1C(=O)c1ccccc1Cl	49.3	89.8 µM	EC50 [3]: 2.36 µM; EC50 [4]: 0.86 µM; EC50 [5]: 0.92 µM
COC(=O)[C@@H]1Cc2cc(O)c(O)cc2[C@H](Cc2ccc(O)c(O)c2)N1C(=O)c1ccccc1	29.7	157 µM	inhibition [7]: Dose-Dependent Effect
COC(=O)[C@@H]1Cc2cc(O)c(O)cc2[C@H](Cc2ccc(O)c(O)c2)N1C(=O)c1ccc(Cl)cc1Cl	> 21.2	> 101 µM	
O=C(Nc1ccccc1)[C@@H]1Cc2cc(O)c(O)cc2[C@H](Cc2ccc(O)c(O)c2)N1C(=O)c1ccccc1Cl	10.8	169 µM	
CCOC(=O)[C@@H]1Cc2cc(O)c(O)cc2[C@H](Cc2ccc(O)c(O)c2)N1C(=O)c1ccccc1Cl	30.7	98.5 µM	
COC(=O)[C@@H]1Cc2cc(O)c(O)cc2[C@H](Cc2ccc(O)c(O)c2)N1C(=O)c1cccc([N+](=O)[O-])c1	> 5.3	> 101 µM	
COC(=O)[C@@H]1Cc2cc(O)c(O)cc2[C@H](Cc2ccc(O)c(O)c2)N1C(=O)c1ccc(Br)cc1	> 25.5	> 101 µM	
O=C(O)Cc1ccccc1Nc1c(Cl)cccc1Cl [DICLOFENAC]			microsomal CLint at 10 µM [8]: 112 µL/min/mg; half-life at 10 µM [9]: 12.1 min
CN(C)C(=O)[C@@H]1Cc2cc(O)c(O)cc2[C@H](Cc2ccc(O)c(O)c2)N1C(=O)c1ccccc1Cl	10.8	137 µM	

SMILES	selectivity ratio [1]	CC50 at 48 h [2]	also measured
COC(=O)[C@@H]1Cc2cc(O)c(O)cc2[C@H](Cc2ccc(O)c(O)c2)N1C(=O)c1ccccc1F	29.7	82.3 µM	
O=C1c2c(O)c(=O)ccn2N([C@@H]2c3ccccc3SCc3c2ccc(F)c3F)[C@@H]2COCCN12 [BALOXAVIR]	> 11700	> 100 µM	
COC(=O)[C@@H]1Cc2cc(O)c(O)cc2[C@H](Cc2ccc(O)c(O)c2)N1C(=O)c1ccc(Cl)cc1	34.5	87.4 µM	
COC(=O)[C@@H]1Cc2cc(O)c(O)cc2[C@H](Cc2ccc(O)c(O)c2)N1C(=O)c1cccc(Cl)c1	25.3	61.1 µM	
COC(=O)[C@@H]1Cc2cc(O)c(O)cc2[C@H](Cc2ccc(O)c(O)c2)N1C(=O)c1ccccc1C(F)(F)F	> 11.1	> 101 µM	
COC(=O)CNC(=O)[C@@H]1Cc2cc(O)c(O)cc2[C@H](Cc2ccc(O)c(O)c2)N1C(=O)c1ccccc1Cl	36.8	143 µM	
COC(=O)[C@@H]1Cc2cc(O)c(O)cc2[C@H](Cc2ccc(O)c(O)c2)N1C(=O)c1ccc(F)cc1	> 33.6	> 101 µM	
COC(=O)[C@@H]1Cc2cc(O)c(O)cc2[C@H](Cc2ccc(O)c(O)c2)N1C(=O)c1cccc(C(F)(F)F)c1	> 11.8	> 101 µM	
COC(=O)[C@@H]1Cc2cc(O)c(O)cc2[C@H](Cc2ccc(O)c(O)c2)N1C(=O)c1ccc(C(F)(F)F)cc1	> 10.8	> 101 µM	
CC(=O)N[C@H]1[C@H]([C@H](O)[C@H](O)CO)OC(C(=O)O)=C[C@@H]1NC(=N)N			Activity [10]: inactive
CCCCCCC(=O)N1[C@H](C(=O)OC)Cc2cc(O)c(O)cc2[C@@H]1Cc1ccc(O)c(O)c1	5.1	84.3 µM	
O=C(O[C@@H]1Cc2c(O)cc(O)cc2O[C@@H]1c1cc(O)c(O)c(O)c1)c1cc(O)c(O)c(O)c1 [EPIGALOCATECHIN GALLATE]	> 3.3	> 100 µM	
COC(=O)[C@@H]1Cc2cc(O)c(O)cc2[C@H](Cc2ccc(O)c(O)c2)N1C(=O)c1ccccc1[N+](=O)[O-]	> 9.2	> 101 µM	
COC(=O)[C@@H]1Cc2cc(O)c(O)cc2[C@H](Cc2ccc(O)c(O)c2)N1C(=O)c1cccc(F)c1	25.8	73.7 µM	
COC(=O)[C@@H]1Cc2cc(O)c(O)cc2[C@H](Cc2ccc(O)c(O)c2)N1C(=O)c1cccc(Br)c1	> 26.4	> 101 µM	
COC(=O)[C@@H]1Cc2cc(O)c(O)cc2[C@H](Cc2ccc(O)c(O)c2)N1C(=O)c1ccc2ccccc2c1	15.6	45.2 µM	
COC(=O)COC(=O)[C@@H]1Cc2cc(O)c(O)cc2[C@H](Cc2ccc(O)c(O)c2)N1C(=O)c1ccccc1Cl	67.1	163 µM	
CC(C)[N+](C)(CCOC(=O)C1c2ccccc2Oc2ccccc21)C(C)C [PROPANTHELINE BROMIDE]			remaining at 1.5 h [11]: 10.3%; remaining at 2 h [12]: 2%; remaining at 0.5 h [13]: 45.5%; remaining at 1 h [14]: 18.2%
